Assay results as given in PMC12064818, “A general assay platform to study protein pharmacology using ligand-dependent structural dynamics” (Nature Communications, 2025).
Where two headings read alike, the source gives them in different places.

Assays:
[1] = target: T1, NLuc (Oplophorus gracilirostris, UniProt Q9GV45, A31E/A60N/A81I/F95D/I117V/K70R/L54V/L99Q/M102K/N193R/P142E/Q151K/Q38R/Q45L/V71I/Y165I); format: biochemical; details: - ATP
T1 construct: His tag (inferred from IMAC purification); made in house; host or cells: E. coli
T1 sequence (Q9GV45 other isoform, or with tags, fused parts or gaps with the stated changes): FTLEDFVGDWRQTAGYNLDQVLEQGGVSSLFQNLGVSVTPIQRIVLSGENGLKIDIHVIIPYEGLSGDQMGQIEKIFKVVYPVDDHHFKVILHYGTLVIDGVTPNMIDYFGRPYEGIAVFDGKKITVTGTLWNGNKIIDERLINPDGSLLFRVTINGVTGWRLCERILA
Experimental: Compounds and controls were added to plates as described in Supplementary Data 8. Nano-Glo luciferase assay reagent (Promega) was prepared fresh according to manufacturer’s protocol, filtered and added at 3 μL per well across assay plates with a BioRaptr2 dispenser. Enzyme was incubated with Nano-Glo reagent for 10 min and NLuc luminescence was read on a ViewLux CCD imager (PerkinElmer), with 1 s exposure with medium gain and 2x binning. Data were normalized to average no enzyme control as 100% enzyme inhibition and average DMSO neutral control. See Supplementary Table 4 for additional details.
Supplementary Table 4. […]
Sequence Param eter Value Description […]
(§1) 5 Detector ViewLux Read plate lum inescence (Exposure = 1- 10 sec; Gain = Medium -high; Speed = Slow;
Dispensing solution was diluted in 1X PBS, pH 7.4.
NanoLuc luciferase (NLuc) enzym atic lum inescence assay […]
Nano-Glo luciferase assay reagent (Prom ega, Cat # N1120) prepared according to m anufacturer’s recom m endations,
4 com ponents stored at -30 °C until use, and reagent prepared fresh for each assay.
syringe filter prior to dispense.

[2] = target: P. pyralis FLuc (Photinus pyralis, UniProt P08659); assay: FLuc enzymatic luminescence assay, P. pyralis FLuc; format: biochemical; details: FLuc enzymatic assay; for IC50: read-out: IC50 or SDR50 (mM) FLuc E
P. pyralis FLuc, sequence (P08659 whole entry): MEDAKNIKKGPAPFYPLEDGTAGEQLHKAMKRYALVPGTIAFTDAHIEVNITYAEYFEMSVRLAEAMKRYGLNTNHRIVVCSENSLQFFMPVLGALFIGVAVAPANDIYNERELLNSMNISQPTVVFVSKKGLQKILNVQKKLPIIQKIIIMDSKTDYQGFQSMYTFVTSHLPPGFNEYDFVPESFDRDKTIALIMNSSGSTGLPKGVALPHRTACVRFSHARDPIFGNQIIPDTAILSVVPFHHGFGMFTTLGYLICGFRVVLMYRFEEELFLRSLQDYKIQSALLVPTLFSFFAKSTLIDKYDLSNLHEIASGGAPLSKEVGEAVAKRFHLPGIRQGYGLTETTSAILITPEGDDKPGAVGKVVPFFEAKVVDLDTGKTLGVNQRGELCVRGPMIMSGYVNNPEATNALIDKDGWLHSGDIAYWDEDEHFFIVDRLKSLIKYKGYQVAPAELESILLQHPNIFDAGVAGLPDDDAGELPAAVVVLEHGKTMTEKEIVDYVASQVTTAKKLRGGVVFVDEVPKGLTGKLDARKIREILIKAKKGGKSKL
Experimental: The enzyme activity of FLuc-N-HiBiT, FLuc-C-HiBiT, and FLuc-C-NLuc was measured similar to P. pyralis firefly luciferase (FLuc) as previously described. […] Compounds and controls were added to each plate as described in Supplementary Data 8 with a Hornet pintool system (Wako Automation). Compounds were incubated with respective enzymes for 30–60 min at room temperature protected from light and covered by solid metal lid to prevent evaporation. […] Luciferin was incubated with FLuc enzyme for 5 min before FLuc activity was then measured on a ViewLux CCD imager (PerkinElmer), with exposure times up to ten seconds with medium to high gain settings. Data were normalized to average no enzyme control as 100% enzyme inhibition and average DMSO neutral control. See Supplementary Table 4 for additional details.
Assays were run in the presence (solid symbols) or absence
(open symbols) of 10 µM ATP. Corresponding SMIL E S for NC GC IDs and source data are provided in
Supplementary Data 3 and as a Source Data file. 10
Supplementary Table 4. Protocol for Firefly luciferase (FLuc) and NanoLuc (NLuc) enzymatic
Supplementary Table 4: Protocol for Firefly luciferase (FLuc) and NanoLuc (NLuc) enzym atic lum inescence assay
Firefly luciferase (FLuc) enzym atic lum inescence assay
Sequence Param eter Value Description
No enzym e control (colum n 1) and enzym e solution (1- 10 nM FLuc enzym e) in FLuc assay
1 Reagent 4 µLbuffer; white/solid bottom , m edium bind, high base plates (Greiner), dispensed with BioRaptr
com pounds transferred to respective colum ns with Pintool
2b Test Com pounds 23 nLconcentration range) in colum ns 5- 48; com pounds transferred to respective wells with
3 Incubation 30 m in Incubate enzym e + com pounds at am bient tem p for 30 m in, protected from light
4 Reagent 3 µLAdd 3 µL of D-luciferin substrate solution to each well (final concentration 10 µM); dispensed
as §1
Dispensing solution was diluted in 1X PBS, pH 7.4. […]

[3] = target: FLuc-C-HiBiT (firefly luciferase) (Photinus pyralis, UniProt P08659, form not given/L550V); assay: SDR assay, FLuc-C-HiBiT; details: SDR max. response, clade S
FLuc-C-HiBiT (firefly luciferase), sequence (P08659 2-550 L550V, form open): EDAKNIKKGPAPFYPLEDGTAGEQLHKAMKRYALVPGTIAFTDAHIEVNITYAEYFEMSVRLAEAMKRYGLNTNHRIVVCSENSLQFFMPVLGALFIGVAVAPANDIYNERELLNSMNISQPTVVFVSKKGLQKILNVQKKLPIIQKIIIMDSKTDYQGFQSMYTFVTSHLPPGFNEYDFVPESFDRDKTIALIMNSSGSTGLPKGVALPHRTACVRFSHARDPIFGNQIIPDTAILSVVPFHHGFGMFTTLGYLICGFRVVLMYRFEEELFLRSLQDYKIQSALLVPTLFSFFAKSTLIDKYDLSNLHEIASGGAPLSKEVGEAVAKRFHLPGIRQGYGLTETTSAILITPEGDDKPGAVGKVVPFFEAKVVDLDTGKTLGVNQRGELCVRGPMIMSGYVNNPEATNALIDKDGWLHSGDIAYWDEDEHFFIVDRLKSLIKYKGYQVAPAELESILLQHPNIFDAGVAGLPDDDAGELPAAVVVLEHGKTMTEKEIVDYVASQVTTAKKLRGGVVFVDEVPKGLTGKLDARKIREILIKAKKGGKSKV

[4] = target: FLuc-C-NLuc (firefly luciferase) (Photinus pyralis, UniProt P08659, form not given/L550V); assay: SDR assay, FLuc-C-NLuc; details: - ATP
FLuc-C-NLuc (firefly luciferase), sequence (P08659 2-550 L550V, form open): as above

Compound | Efficacy (%) NLuc (- ATP) [1] [%] | Efficacy (%) FLuc E ([2]; Clade S follow-up) [%] | % Activity (max response, + ATP) [3] [%] | % Activity (max response, - ATP) [3] [%] | Efficacy (%) FLuc-C-NLuc SDR (-ATP) [4] [%] | pIC50 or pSDR50 FLuc E ([2]; Clade S follow-up) | IC50 ([2]; Clade S follow-up) [mM] | pIC50 or pSDR50 FLuc E [2] | IC50 [2] [mM]
COc1ccc(C2Cn3cnc(C(=O)N4CCC(C(=O)NCC5CCCCC5)CC4)c3CO2)cc1 (stereo not drawn) [NCGC00449872-01] | 0.00 | -14.52 | 0.00 | 0.00 | 0.00 | – | – | – | –
Cc1ccc(C2Cn3cnc(C(=O)N4CCC(C(=O)NCc5cc(F)ccc5F)CC4)c3CO2)cc1 (stereo not drawn) [NCGC00449900-01] | 0.00 | -40.44 | 59.08 | 0.00 | 0.00 | 4.96 | 0.0111 | – | –
Cc1ccc(C2Cn3cnc(C(=O)N4CCC(C(=O)NCc5ccccc5)CC4)c3CO2)cc1 (stereo not drawn) [NCGC00449884-01] | -9.37 | -51.95 | 91.57 | 0.00 | 0.00 | 4.96 | 0.0111 | – | –
Cc1ccc(C2Cn3cnc(C(=O)N4CCC(C(=O)NCc5ccccc5Cl)CC4)c3CO2)cc1 (stereo not drawn) [NCGC00449891-01] | 0.00 | -50.12 | 113.62 | 0.00 | 0.00 | 4.96 | 0.0111 | – | –
Cc1ccc(C2Cn3cnc(C(=O)N4CCC(C(=O)NC5CCCCC5)CC4)c3CO2)cc1 (stereo not drawn) [NCGC00449882-01] | 0.00 | -33.56 | 52.31 | 0.00 | 0.00 | 4.91 | 0.0124 | – | –
COc1ccc(CNC(=O)C2CCN(C(=O)c3ncn4c3COC(c3ccc(C)cc3)C4)CC2)cc1 (stereo not drawn) [NCGC00449887-01] | 0.00 | -38.46 | 80.81 | 0.00 | 0.00 | 4.96 | 0.0111 | – | –
O=C(Nc1ccc(F)c(F)c1)C1CCN(C(=O)c2ncn3c2COC(c2ccc(F)cc2)C3)CC1 (stereo not drawn) [NCGC00449940-01] | 0.00 | -73.07 | 125.80 | 0.00 | 0.00 | 4.96 | 0.0111 | – | –
O=C(NCc1ccc(F)cc1)C1CCN(C(=O)c2ncn3c2COC(c2ccc(Cl)cc2)C3)CC1 (stereo not drawn) [NCGC00449852-01] | 0.00 | -25.63 | 32.50 | 0.00 | 0.00 | 4.86 | 0.0139 | – | –
Cc1ccc(C2Cn3cnc(C(=O)N4CCC(C(=O)NCc5cccc(Cl)c5)CC4)c3CO2)cc1 (stereo not drawn) [NCGC00449892-01] | 0.00 | -30.33 | 61.41 | 14.19 | 0.00 | 4.91 | 0.0124 | – | –
O=C(NCCCc1ccccc1)C1CCN(C(=O)c2ncn3c2COC(c2ccccc2)C3)CC1 (stereo not drawn) [NCGC00449797-01] | 0.00 | -79.71 | 265.99 | 0.00 | 0.00 | – | – | 5.36 | 0.00441
Cc1ccccc1CNC(=O)C1CCN(C(=O)c2ncn3c2COC(c2ccccc2)C3)CC1 (stereo not drawn) [NCGC00449798-01] | 0.00 | -85.12 | 370.72 | 0.00 | 0.00 | – | – | 5.26 | 0.00555
O=C(NC1CCCCCC1)C1CCN(C(=O)c2ncn3c2COC(c2ccc(Cl)cc2)C3)CC1 (stereo not drawn) [NCGC00449846-01] | 0.00 | -16.55 | 13.50 | 0.00 | 0.00 | – | – | – | –
Cc1ccc(C2Cn3cnc(C(=O)N4CCC(C(=O)NCCc5ccccc5)CC4)c3CO2)cc1 (stereo not drawn) [NCGC00449896-01] | 10.33 | -32.41 | 46.98 | 0.00 | 0.00 | 4.91 | 0.0124 | – | –
O=C(NC1CCCCCC1)C1CCN(C(=O)c2ncn3c2COC(c2ccccc2)C3)CC1 (stereo not drawn) [NCGC00449769-01] | 0.00 | -80.74 | 369.53 | 0.00 | 0.00 | – | – | 5.26 | 0.00555
Cc1ccc(C2Cn3cnc(C(=O)N4CCC(C(=O)NCc5cccc(F)c5)CC4)c3CO2)cc1 (stereo not drawn) [NCGC00449899-01] | 0.00 | -43.90 | 60.19 | 0.00 | 0.00 | 5.01 | 0.00988 | – | –
O=C(NC1CC1)C1CCN(C(=O)c2ncn3c2COC(c2ccc(F)cc2)C3)CC1 (stereo not drawn) [NCGC00449806-01] | 0.00 | -31.66 | 47.67 | 0.00 | 0.00 | – | – | 4.91 | 0.0124
